Experimental data as given in patent publication US7834011B2, “Heterocyclylalkyl derivatives as novel inhibitors of histone deacetylase” (Janssen Pharmaceutica N.V., priority 2006, dated 2010).

How the values were obtained:
[1] = target: histone deacetylase (HeLa nuclear extracts); test: In vitro assay for inhibition of histone deacetylase with fluorescent-labelled substrate (Fluor de Lys); format: biochemical
From the text: The in vitro assay for inhibition of histone deacetylase (see example C.1) measures the inhibition of HDAC enzymatic activity obtained with the compounds of formula (I).
The HDAC Fluorescent Activity Assay/Drug Discovery Kit of Biomol (cat. No: AK-500-0001) was used. The HDAC Fluorescent Activity Assay is based on the Fluor de Lys (Fluorogenic Histone deAcetylase Lysyl) substrate and developer combination. The Fluor de Lys substrate, comprises an acetylated lysine side chain. Deacetylation of the substrate sensitizes the substrate so that, in the second step, treatment with the Fluor de Lys developer produces a fluorophore.
HeLa nuclear extracts (supplier: Biomol) were incubated at 60 μg/ml with 75 μM of substrate. The Fluor de Lys substrate was added in a buffer containing 25 mM Tris, 137 mM NaCl, 2.7 mM KCl and 1 mM MgCl2.6H2O at pH 7.4. After 30 min, 1 volume of the developer was added. The fluorophore was excited with 355 nm light and the emitted light (450 nm) was be detected on a fluorometric plate reader.
For each experiment, controls (containing HeLa nuclear extract and buffer), a blank incubation (containing buffer but no HeLa nuclear extract) and samples (containing compound dissolved in DMSO and further diluted in buffer and HeLa nuclear extract) were run in parallel. In first instance, compounds were tested at a concentration of 10^−5M. […] All sample were tested 4 times. In each test the blank value was subtracted from both the control and the sample values. The control sample represented 100% of substrate deactylation. For each sample the fluorescence was expressed as a percentage of the mean value of the controls. […] Herein the effects of test compounds are expressed as pIC50 (the negative log value of the IC50-value) (see Table F-2).

[2] = tested on: A2780 ovarian carcinoma cells; test: Antiproliferative activity on A2780 cells (MTT); format: cell-based; conditions: Homo sapiens, 96 h, four days of incubation, read-out: Cellular activity pIC50 C.2 (converted)
Description: Cellular activity of the compounds of formula (I) was determined on A2780 tumour cells using a colorimetric assay for cell toxicity or survival (Mosmann Tim, Journal of Immunological Methods 65: 55-63, 1983)(see example C.2).
All compounds tested were dissolved in DMSO and further dilutions were made in culture medium. Final DMSO concentrations never exceeded 0.1% (v/v) in cell proliferation assays. Controls contained A2780 cells and DMSO without compound and blanks contained DMSO but no cells. MTT was dissolved at 5 mg/ml in PBS. A glycine buffer comprised of 0.1 M glycine and 0.1 M NaCl buffered to pH 10.5 with NaOH (1 N) was prepared (all reagents were from Merck).
The human A2780 ovarian carcinoma cells (a kind gift from Dr. T. C. Hamilton [Fox Chase Cancer Centre, Pennsylvania, USA]) were cultured in RPMI 1640 medium supplemented with 2 mM L-glutamine, 50 μg/ml gentamicin and 10% fetal calf serum. Cells were routinely kept as monolayer cultures at 37° C. in a humidified 5% CO2 atmosphere. Cells were passaged once a week using a trypsin/EDTA solution at a split ratio of 1:40. All media and supplements were obtained from Life Technologies. Cells were free of mycoplasma contamination as determined using the Gen-Probe Mycoplasma Tissue Culture kit (supplier: BioMérieux).
Cells were seeded in NUNC™ 96-well culture plates (Supplier: Life Technologies) and allowed to adhere to the plastic overnight. Densities used for plating were 1500 cells per well in a total volume of 200 μl medium. After cell adhesion to the plates, medium was changed and drugs and/or solvents were added to a final volume of 200 μl. Following four days of incubation, medium was replaced by 200 μl fresh medium and cell density and viability was assessed using an MTT-based assay. To each well, 25 μl MTT solution was added and the cells were further incubated for 2 hours at 37° C. The medium was then carefully aspirated and the blue MTT-formazan product was solubilized by addition of 25 μl glycine buffer followed by 100 μl of DMSO. […] Within an experiment, the results for each experimental condition are the mean of 3 replicate wells. For initial screening purposes, compounds were tested at a single fixed concentration of 10^−6 M. For active compounds, the experiments were repeated to establish full concentration-response curves. For each experiment, controls (containing no drug) and a blank incubation (containing no cells or drugs) were run in parallel. The blank value was subtracted from all control and sample values. For each sample, the mean value for cell growth (in absorbance units) was expressed as a percentage of the mean value for cell growth of the control. […] Herein the effects of test compounds are expressed as pIC50 (the negative log value of the IC50-value)(see Table F-2).

[3] = Kinetic solubility in aqueous media C.3.a (nephelometer); format: physicochemical; conditions: aqueous buffer, kinetic from dmso stock; phosphate citrate buffer pH 7.4, turbidity; read-out: Kinetic solubility score (C.3.a)
Description: The solubility of a compound measures the ability of a compound to stay in solution. In a first method the ability of a compound to stay in aqueous solution upon dilution (see example C.3.a) is measured. DMSO-stock solutions are diluted with a single aqueous buffer solvent in 3 consecutive steps. For every dilution turbidity is measured with a nephelometer.
In the first dilution step, 10 μl of a concentrated stock-solution of the active compound, solubilized in DMSO (5 mM), was added to 100 μl phosphate citrate buffer pH 7.4 and mixed. In the second dilution step, an aliquot (20 μl) of the first dilution step was further dispensed in 100 μl phosphate citrate buffer pH 7.4 and mixed. Finally, in the third dilution step, a sample (20 μl) of the second dilution step was further diluted in 100 μl phosphate citrate buffer pH 7.4 and mixed. All dilutions were performed in 96-well plates. Immediately after the last dilution step the turbidity of the three consecutive dilution steps were measured with a nephelometer. Dilution was done in triplicate for each compound to exclude occasional errors. Based on the turbidity measurements a ranking is performed into 3 classes. Compounds with high solubility obtained a score of 3 and for this compounds the first dilution is clear. Compounds with medium solubility obtained a score of 2. […]

Enzymatic activity pIC50 C.1 [1]: 8.1
IC50 [2]: 100 nM
solubility kinetic [3]: > 455 µM
melting point: 209 °C
Compound: Cn1c(CNCC2CCN(c3ncc(C(=O)NO)cn3)CC2)nc2ccccc21 [Compound 3]
